Experimental data taken from ChEMBL document CHEMBL1287745, “AdoHcy hydrolase of Trichomonas vaginalis: studies of the effects of 5'-modified adenosine analogues and related 6-N-cyclopropyl derivatives” (Bioorg Med Chem Lett, 2010).
In brackets after ≈: the same amount, converted by molar mass. Several values for one entry are separate records, joined by “and”; a condition that tells them apart may be missing. Identical values can stand only once.

What was measured:
[1] = test system: Trichomonas vaginalis; experiment: […] activity against Trichomonas vaginalis T1; assay type: functional, organism-based
[2] = test system: Trichomonas vaginalis; experiment: Antiparasitic activity against Trichomonas vaginalis T1 at […] after 24 hrs by hemocytometric analysis; assay type: functional
[3] = test system: Trypanosoma; experiment: Antimicrobial activity against Trypanosoma; assay type: functional, organism-based
[4] = Trichomonas vaginalis, T1, read-out: IC50

SMILES | IC50 [1, 4] | growth inhibition (GI) [2] [%] | also measured
Cc1ncc([N+](=O)[O-])n1CCO [METRONIDAZOLE] | 0.12 µg/mL (≈ 0.701 µM) | – | –
Nc1ncnc2c1ncn2[C@@H]1O[C@H](/C=C/CCCC(=O)O)[C@@H](O)[C@H]1O | – | 22 | –
Nc1ncnc2c1ncn2CCC(O)CO (stereo not given) | – | 11 | –
Nc1ncnc2c1ncn2[C@@H]1O[C@H](/C=C/I)[C@@H](O)[C@H]1O | 60 µM and 19 µg/mL | 85 | –
O[C@@H]1[C@H](O)[C@@H](C=C(Br)Br)O[C@H]1n1cnc2c(NC3CC3)ncnc21 | – | 12 | IC50 [3]: Not Active
ON=C[C@H]1O[C@@H](n2cnc3c(NC4CC4)ncnc32)[C@H](O)[C@@H]1O | – | 41 | IC50 [3]: Not Active
Nc1ncnc2c1ncn2[C@@H]1O[C@H](/C=C\I)[C@@H](O)[C@H]1O | 76 µM and 24 µg/mL | 81 | –
COC(=O)C(O)CCn1cnc2c(N)ncnc21 (stereo not given) | – | 16 | –
Nc1ncnc2c1ncn2[C@@H]1C[C@H](CO)[C@@H](O)[C@H]1O [ARISTEROMYCIN] | 10 µM and 3 µg/mL | 95 | –
Nc1ncnc2c1ncn2[C@@H]1O[C@H](C(=O)O)[C@@H](O)[C@H]1O [5'-CARBOXY ADENOSINE] | – | 17 | –
COC(=O)[C@H]1O[C@@H](n2cnc3c(N)ncnc32)[C@H](O)[C@@H]1O | – | 4 | –
O[C@@H]1[C@H](O)[C@@H](C=CF)O[C@H]1n1cnc2c(NC3CC3)ncnc21 | – | 10 | IC50 ([3]; Trypanosoma, read-out: IC50): 19 µg/mL (≈ 59.1 µM)
O[C@@H]1[C@H](O)[C@@H](C=CI)O[C@H]1n1cnc2c(NC3CC3)ncnc21 | – | 24 | IC50 ([3]; Trypanosoma, read-out: IC50): 12 µg/mL (≈ 28 µM); IC50 [1]: Not Active
Nc1ncnc2c1ncn2[C@@H]1O[C@H](C=NO)[C@@H](O)[C@H]1O | 40 µM and 11 µg/mL | 93 | –
Nc1ncnc2c1ncn2[C@@H]1O[C@H](/C=C/C#CI)[C@@H](O)[C@H]1O | – | 34 | –
Nc1ncnc2c1ncn2[C@@H]1C[C@H](C(=O)O)[C@@H](O)[C@H]1O | – | 36 | –
